Test results reported in ChEMBL document CHEMBL1201862, “PubChem BioAssay data set” (2004).
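Cells were grown in 96-well plates and exposed to each compound for 48 hours at five concentrations; endpoints were interpolated linearly between bracketing concentrations, or set to the highest concentration if not reached. At the GI50, growth is halved.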 Calls of active or inactive are those of the source. Rule as the data show it: active = GI50 up to about 1.1 µM and inactive = higher.

Assays:
Assay in all cases: NCI-60 cell line screen, 48 h
SR = system: SR
TK-10 = system: TK-10
K562 = system: K562
ACHN = system: ACHN
OVCAR-3 = system: OVCAR-3
OVCAR-8 = system: OVCAR-8
BT-549 = system: BT-549
HOP-92 = system: HOP-92
MDA-N = system: MDA-N
SNB-19 = system: SNB-19
KM12 = system: KM12
NCI-H23 = system: NCI-H23
HOP-62 = system: HOP-62
OVCAR-4 = system: OVCAR-4
HT-29 = system: HT-29
IGROV-1 = system: IGROV-1
SW-620 = system: SW-620
PC-3 = system: PC-3
SNB-75 = system: SNB-75
RXF 393 = system: RXF 393

Row | Compound | GI50 (SR) | GI50 (TK-10) | GI50 (K562) | GI50 (ACHN) | GI50 (OVCAR-3) | GI50 (OVCAR-8) | GI50 (BT-549) | GI50 (HOP-92) | GI50 (MDA-N) | GI50 (SNB-19) | GI50 (KM12) | GI50 (NCI-H23) | GI50 (HOP-62) | GI50 (OVCAR-4) | GI50 (HT-29) | GI50 (IGROV-1) | GI50 (SW-620) | GI50 (PC-3) | GI50 (SNB-75) | GI50 (RXF 393)
1 | O=C(c1cccc2ccccc12)C1(Br)S(=O)(=O)OCCOS1(=O)=O | > 100 µM (inactive) | > 100 µM (inactive) | > 10 µM (inactive) | > 100 µM (inactive) | > 100 µM (inactive) | > 100 µM (inactive) | > 100 µM (inactive) | > 10 µM (inactive) | > 100 µM (inactive) | > 100 µM (inactive) | > 100 µM (inactive) | > 100 µM (inactive) | > 100 µM (inactive) | > 100 µM (inactive) | > 100 µM (inactive) |  |  |  |  | 
2 | CCOC(=O)C(CO)c1nc2c([nH]c1=O)c(=O)n(C)c(=O)n2C (stereo not drawn) | > 100 µM (inactive) | > 100 µM (inactive) | > 100 µM (inactive) | > 100 µM (inactive) | > 100 µM (inactive) | > 100 µM (inactive) | > 100 µM (inactive) |  |  | > 100 µM (inactive) | > 100 µM (inactive) | > 100 µM (inactive) | > 100 µM (inactive) |  | > 100 µM (inactive) | > 100 µM (inactive) | > 100 µM (inactive) | > 100 µM (inactive) |  | 
3 | CC(=O)OC1CCN(C(=O)c2ccccc2)CC1CC1(c2cc3ccccc3[nH]2)OCCO1 (stereo not drawn) |  | 53.2 µM (inactive) | 30.1 µM (inactive) | > 100 µM (inactive) | 53.1 µM (inactive) | 73.1 µM (inactive) |  | 48.9 µM (inactive) | 39.2 µM (inactive) | > 100 µM (inactive) | 67.5 µM (inactive) | 69.2 µM (inactive) | > 100 µM (inactive) | 77.3 µM (inactive) | > 100 µM (inactive) | 61.2 µM (inactive) | > 100 µM (inactive) | 34.9 µM (inactive) | 49.4 µM (inactive) | > 100 µM (inactive)
4 | SC1=NC2=C(CSC/C2=C\c2cccc(Br)c2)C(c2cccc(Br)c2)N1 (stereo not drawn) |  | > 100 µM (inactive) | 45.7 µM (inactive) | > 100 µM (inactive) | > 100 µM (inactive) | > 100 µM (inactive) |  |  | 68.2 µM (inactive) | > 100 µM (inactive) | 88.5 µM (inactive) | 63.4 µM (inactive) | > 100 µM (inactive) | 93.5 µM (inactive) | 42.3 µM (inactive) | > 100 µM (inactive) | > 100 µM (inactive) | 46.7 µM (inactive) | 41.6 µM (inactive) | > 100 µM (inactive)
5 | CC12CCC([C@H](Nc3cc(C(F)(F)F)cc(C(F)(F)F)c3)C1=O)C2(C)C (stereo partly drawn) | > 100 µM (inactive) | > 100 µM (inactive) | > 100 µM (inactive) | > 100 µM (inactive) | 16.8 µM (inactive) | > 100 µM (inactive) | > 100 µM (inactive) |  |  | > 100 µM (inactive) | > 100 µM (inactive) | > 100 µM (inactive) | 33.7 µM (inactive) | > 100 µM (inactive) | 84.3 µM (inactive) | 47.3 µM (inactive) | > 100 µM (inactive) | > 100 µM (inactive) |  | 0.0162 µM (active)
6 | CC1CN1P1(N2CC2C)=NP(N2CC2C)(N2CC2C)=NP(N2CC2C)(N2CC2C)=N1 (stereo not drawn) | > 50 µM (inactive) | > 50 µM (inactive) | > 50 µM (inactive) | > 50 µM (inactive) | > 50 µM (inactive) | > 50 µM (inactive) |  | > 50 µM (inactive) |  | > 50 µM (inactive) |  | > 50 µM (inactive) |  | > 50 µM (inactive) | > 50 µM (inactive) | > 50 µM (inactive) | > 50 µM (inactive) |  | > 50 µM (inactive) | > 50 µM (inactive)
7 | O=C(c1cc2ccccc2cc1O)N1CCCCC1 | 16.7 µM (inactive) | > 100 µM (inactive) | 21.6 µM (inactive) | 38.2 µM (inactive) |  | 20.8 µM (inactive) | 35.2 µM (inactive) | 11.4 µM (inactive) |  | 28.5 µM (inactive) | 33.6 µM (inactive) |  | 27.4 µM (inactive) | 37.7 µM (inactive) | 25.6 µM (inactive) | 13.5 µM (inactive) | 48 µM (inactive) | 29.8 µM (inactive) | 31.5 µM (inactive) | 51.1 µM (inactive)
8 | CCOP(=O)(Cc1nc(C#N)c(N)o1)OCC | > 100 µM (inactive) | > 100 µM (inactive) | > 100 µM (inactive) | > 100 µM (inactive) | > 100 µM (inactive) |  |  | > 100 µM (inactive) | > 100 µM (inactive) | > 100 µM (inactive) | > 100 µM (inactive) |  | > 100 µM (inactive) | > 100 µM (inactive) | > 100 µM (inactive) | > 100 µM (inactive) | > 100 µM (inactive) | > 100 µM (inactive) |  | > 100 µM (inactive)
9 | C/C=C(\C)C(=O)N1c2ccccc2CC1c1c(C)[nH]c2ccccc12 (stereo not drawn) | > 100 µM (inactive) | 73.3 µM (inactive) | 39.6 µM (inactive) | 55.8 µM (inactive) | 21.5 µM (inactive) | 83.8 µM (inactive) |  | 12.2 µM (inactive) |  | > 100 µM (inactive) | 26.7 µM (inactive) | 55.2 µM (inactive) | > 100 µM (inactive) | 4.15 µM (inactive) | 38.4 µM (inactive) | 39.6 µM (inactive) | > 100 µM (inactive) |  | 35 µM (inactive) | > 100 µM (inactive)
10 | C[C@]12CC[C@H](O)CC1=CC[C@@H]1C2CC[C@]2(C)C(=O)N(N)C(=O)CC12 (stereo partly drawn) | > 100 µM (inactive) | > 100 µM (inactive) | > 100 µM (inactive) | > 100 µM (inactive) | > 100 µM (inactive) | > 100 µM (inactive) |  | > 100 µM (inactive) |  | > 100 µM (inactive) | > 100 µM (inactive) | > 100 µM (inactive) | > 100 µM (inactive) | > 100 µM (inactive) | > 100 µM (inactive) | > 100 µM (inactive) | > 100 µM (inactive) |  | 5.38 µM (inactive) | > 100 µM (inactive)
11 | COc1cc(C2c3cc4c(cc3OC(N3CCOCC3)C2C)OCO4)cc(OC)c1O (stereo not drawn) | 3.82 µM (inactive) | 18.7 µM (inactive) | 3.38 µM (inactive) | 12.2 µM (inactive) | 5.42 µM (inactive) | 14.2 µM (inactive) | 7.43 µM (inactive) | 12.8 µM (inactive) |  | 22.3 µM (inactive) | 4.73 µM (inactive) | 24.8 µM (inactive) | 9.57 µM (inactive) | 36.6 µM (inactive) | 4.04 µM (inactive) | 7.6 µM (inactive) | 3.84 µM (inactive) | 6.19 µM (inactive) | 1.79 µM (inactive) | 14.7 µM (inactive)
12 | COc1cc2c3c(c1OCc1ccccc1)NCCC3NCC2 (stereo not drawn) | > 100 µM (inactive) | > 100 µM (inactive) | > 100 µM (inactive) |  | > 100 µM (inactive) | > 100 µM (inactive) |  | 86.1 µM (inactive) |  | > 100 µM (inactive) | > 100 µM (inactive) | > 100 µM (inactive) | > 100 µM (inactive) | > 100 µM (inactive) | > 100 µM (inactive) | > 100 µM (inactive) | > 100 µM (inactive) |  | 43.7 µM (inactive) | 98.2 µM (inactive)
13 | COc1ccc(CCNC(=O)Cc2ccccc2CCO)cc1OC | > 100 µM (inactive) | > 100 µM (inactive) | > 100 µM (inactive) | > 100 µM (inactive) | > 100 µM (inactive) | > 100 µM (inactive) | > 100 µM (inactive) | > 100 µM (inactive) |  | 27.4 µM (inactive) | > 100 µM (inactive) | > 100 µM (inactive) | > 100 µM (inactive) | 41.8 µM (inactive) | > 100 µM (inactive) | > 100 µM (inactive) | > 100 µM (inactive) | > 100 µM (inactive) | > 100 µM (inactive) | > 100 µM (inactive)
14 | CC(C)(C)c1cc(C(=O)/C=C/c2ccc3c(c2)CCO3)cc(C(C)(C)C)c1O | 0.548 µM (active) | 1.31 µM (inactive) | 0.938 µM (active) | 1.69 µM (inactive) | 5.07 µM (inactive) | 1.63 µM (inactive) | 1.8 µM (inactive) | 16.2 µM (inactive) |  | 2.94 µM (inactive) | 0.49 µM (active) | 1.14 µM (inactive) | 4.15 µM (inactive) | 0.869 µM (active) | 1.04 µM (active) | 2.29 µM (inactive) | 1.13 µM (inactive) | 0.891 µM (active) | 0.733 µM (active) | 0.216 µM (active)
15 | CC/C=C/C(CC)C/C(C)=C\[C@]1(CC)C[C@H](CC)[C@H](CC(=O)O)OO1 (stereo partly drawn) | 0.114 µM (active) |  | 0.355 µM (active) | 0.265 µM (active) | 1.15 µM (inactive) | 1.09 µM (active) |  |  | 1.36 µM (inactive) | 1.82 µM (inactive) | 0.0991 µM (active) | 1.61 µM (inactive) | 0.885 µM (active) |  | 0.499 µM (active) | 0.0612 µM (active) | 0.352 µM (active) | 0.366 µM (active) |  | 
16 | CN(C)c1nc(N(C)C)nc(N(C)CN(C)c2nc(N(C)C)nc(N(C)C)n2)n1 | > 100 µM (inactive) | > 100 µM (inactive) | > 100 µM (inactive) | > 100 µM (inactive) | > 100 µM (inactive) | > 100 µM (inactive) |  | > 100 µM (inactive) |  | > 100 µM (inactive) | > 100 µM (inactive) | > 100 µM (inactive) | > 100 µM (inactive) | > 100 µM (inactive) | > 100 µM (inactive) | > 100 µM (inactive) | > 100 µM (inactive) |  | > 100 µM (inactive) | > 100 µM (inactive)
